The text below walks through data of patent US8226943B2, “Antibodies to notch receptors” (OncoMed Pharmaceuticals, Inc., priority 2008, dated 2012).

Assay [1] deals with PN4 pancreatic tumor cells. Description: PN4 pancreatic tumor xenograft growth. Type of assay: in vivo, NOD/SCID mice. The procedure:
In another experiment, anti-Notch2/3 antibodies were tested for an effect on pancreatic tumor growth. NOD/SCID mice were injected with 30,000 PN4 pancreatic tumor cells sub-cu in the right flank, and tumors were allowed to grow until they had reached an average volume of 100 mm^3. Animals were randomized and dosing of anti-Notch2/3 antibody 59R1 or control antibody 1B711 was initiated. Antibodies were dosed at 15 mg/kg given once per week.
PN4 pancreatic tumor cells (50,000 cells per mouse) were injected subcutaneously into the flank region of Nod-Scid mice. Tumors were allowed to grow for 27 days until they had reached an average volume of ˜120 mm^3. Animals were randomized into four treatment groups (n=10/group) and treatments were initiated. One group received a control antibody (1B711) at 10 mg/kg twice per week; one group received gemcitabine at 40 mg/kg once per week plus the control antibody at 10 mg/kg twice per week; one group received 59R1 at 10 mg/kg twice per week, and the fourth group received the combination of 59R1 at 10 mg/kg twice per week and gemcitabine 40 mg/kg once per week. Tumor volumes were measured on the indicated days.

The target in another assay is human Notch2 (Homo sapiens, UniProt Q04721). Description: FACS binding to human Notch2 on stably transfected HEK-293 cells. Further details: expressed in transfected cells; host or cells: HEK-293, stably transfected. The conditions noted are these: HEK-293 stably overexpressing human Notch2. The procedure:
A particular Fab (59R1) was identified that bound the human Notch2 receptor and blocked binding of Jagged1 to human Notch2. Binding of the 59R1 Fab to human Notch2 was verified by FACS assay using a stable human cell line HEK-293 which overexpressed human Notch2 (hN2) (FIG. 1A). Fab binding was detected by phycoerythrin (PE)-conjugated goat anti-human Fab (Jackson Immunochemicals). […] Ligand binding and blocking was determined by incubating hJagged 1 extracellular domain (ECD) fused to human Fc constant region with the cells and Fabs selected from the phage library and using PE-conjugated goat anti-human Fc gamma specific antibodies (Jackson Immunochemicals) for detection.
In addition, the 59R1 IgG2 antibody was assayed for its ability to block binding of DLL4 to the human Notch 2 receptor by FACS analysis. HEK-293 cells stably overexpressing human Notch2 were incubated with the antibody at various concentration and then detected for hNotch2 binding (FIG. 1C) by PE-conjugated goat anti-human Fc gamma specific antibody, or ligand blocking activity (FIG. 1D). Ligand blocking was determined by incubating the cells with human DLL4 ECD tagged with the rabbit Fc constant region and the 59R1 antibody at a range of concentrations, and then detecting the hDLL4 by PE-conjugated donkey anti-rabbit antibody. […]

Assay [2] relates to breast tumors T1, PE13, and B51. Description: Gene Set Enrichment Analysis in treated breast tumors. Format: in vivo, mice. From the text: Several pathways/gene sets that are regulated by antibody 59R1 in tumor cells were identified (Table 9) using Gene Set Enrichment Analysis (Mootha et al., 2003, Nature Genetics 34:267-73; Subramanian et al., 2005, Proc. Natl. Acad. Sci. USA 102:15545-50) in the breast tumors T1, PE13, and B51.

For a further assay, the target named is T1, human Notch4 (Homo sapiens, UniProt Q99466).
T1 construct: All Notch constructs were full length; expressed in transfected cells; host or cells: HEK-293, transient, co-transfected with GFP
Description: FACS binding to transiently transfected HEK-293 cells, human Notch4. The procedure:
The ability of the 59R1 IgG2 antibody to cross-react with other Notch receptors was determined by FACS assay using HEK-293 cells transiently transfected with the human Notch1, Notch2, Notch3 or Notch4 expression plasmid and green fluorescent protein (GFP) as a transfection control. GFP positive cells indicated expression of the transgene. The 59R1 IgG2 was added to the cells at 2 μg/ml and detected by PE-conjugated goat anti-human Fc gamma specific (Jackson Immunochemicals). All Notch constructs were full length.
A general note: Flow cytometry measures light scatter and fluorescence of single cells or particles in a stream.

The next assay concerns M4 melanoma tumor cells. Description: M4 melanoma xenograft growth. The conditions noted are these: 10 mg/kg twice per week. Format: in vivo, NOD-SCID mice. The procedure: M4 melanoma tumor cells (10,000 cells per mouse) were injected subcutaneously into the flank region of NOD-SCID mice. Tumors were allowed to grow for 25 days until they had reached an average volume of ˜80 mm^3. Animals were randomized into treatment groups (n=10/group) and treatments were initiated. One group received a control antibody (1B711) at 10 mg/kg twice per week and one group received 59R1 at 10 mg/kg twice per week. Tumor volumes were measured on the indicated days.

For assay [3], the system named is stroma from the xenograft models Colo205, B29, B34, B44, PE13, T1, C8, and PN8. Description: TaqMan analysis of stromal gene expression in xenograft models. Type of assay: in vivo, mice. From the text:
The expression levels in the stroma from the xenograft models Colo205, B29, B34, B44, PE13, T1 (without estrogen treatment), T1 (with estrogen treatment), C8, and PN8 of selected genes that had been identified in the microarray analysis as being regulated by treatment with 59R1 (heyl, notch3, rgs5, angpt1, and angpt2) were further analyzed by TaqMan® analysis. The results are shown in FIGS. 12A (heyl), 12B (notch3), 12C (rgs5), 12D (angpt1), and 12E (angpt2).

The subject of assay [4] is hDLL4-induced Notch2 signaling. Description: Luciferase reporter assay, hDLL4-induced Notch2 signaling in Hela cells. Format: cell-based, human. The conditions noted are these: antibody titrated from 40 μg/ml. The procedure: Luciferase reporter assays were used to assay the 59R1 antibody for its ability to block hDLL4-, hJAG1-, and hJAG2-induced Notch2 signaling.
Hela cells that stably overexpress human Notch2 were transiently transfected with firefly luciferase with a synthetic 8×CBS promoter (Ong et al., 2006, J. of Biological Chemistry, 281:5106-5119), pSPORT6 MAML-1, and Renilla luciferase-CMV as a transfection control. Cells were incubated with 100 ng of immobilized hDLL4 (R&D systems) with the indicated antibodies for 16 hours and then assayed using Dual-Glo (Promega) according to the manufacturer's instructions. Control antibody was at a concentration of 40 μg/ml. 59R1 IgG2 antibody was titrated, starting at 40 μg/ml, and then diluted by one-fourth. The gamma secretase inhibitor (GSI) dibenzazepine (DBZ) was used as a control at 1 μM.
In general terms: Reporter assays use an easily measured gene product as a stand-in for the process of interest.

Where [5] appears, read: each of the various tumor types, relative to control.

human Notch2, sequence (Q04721 26-2471): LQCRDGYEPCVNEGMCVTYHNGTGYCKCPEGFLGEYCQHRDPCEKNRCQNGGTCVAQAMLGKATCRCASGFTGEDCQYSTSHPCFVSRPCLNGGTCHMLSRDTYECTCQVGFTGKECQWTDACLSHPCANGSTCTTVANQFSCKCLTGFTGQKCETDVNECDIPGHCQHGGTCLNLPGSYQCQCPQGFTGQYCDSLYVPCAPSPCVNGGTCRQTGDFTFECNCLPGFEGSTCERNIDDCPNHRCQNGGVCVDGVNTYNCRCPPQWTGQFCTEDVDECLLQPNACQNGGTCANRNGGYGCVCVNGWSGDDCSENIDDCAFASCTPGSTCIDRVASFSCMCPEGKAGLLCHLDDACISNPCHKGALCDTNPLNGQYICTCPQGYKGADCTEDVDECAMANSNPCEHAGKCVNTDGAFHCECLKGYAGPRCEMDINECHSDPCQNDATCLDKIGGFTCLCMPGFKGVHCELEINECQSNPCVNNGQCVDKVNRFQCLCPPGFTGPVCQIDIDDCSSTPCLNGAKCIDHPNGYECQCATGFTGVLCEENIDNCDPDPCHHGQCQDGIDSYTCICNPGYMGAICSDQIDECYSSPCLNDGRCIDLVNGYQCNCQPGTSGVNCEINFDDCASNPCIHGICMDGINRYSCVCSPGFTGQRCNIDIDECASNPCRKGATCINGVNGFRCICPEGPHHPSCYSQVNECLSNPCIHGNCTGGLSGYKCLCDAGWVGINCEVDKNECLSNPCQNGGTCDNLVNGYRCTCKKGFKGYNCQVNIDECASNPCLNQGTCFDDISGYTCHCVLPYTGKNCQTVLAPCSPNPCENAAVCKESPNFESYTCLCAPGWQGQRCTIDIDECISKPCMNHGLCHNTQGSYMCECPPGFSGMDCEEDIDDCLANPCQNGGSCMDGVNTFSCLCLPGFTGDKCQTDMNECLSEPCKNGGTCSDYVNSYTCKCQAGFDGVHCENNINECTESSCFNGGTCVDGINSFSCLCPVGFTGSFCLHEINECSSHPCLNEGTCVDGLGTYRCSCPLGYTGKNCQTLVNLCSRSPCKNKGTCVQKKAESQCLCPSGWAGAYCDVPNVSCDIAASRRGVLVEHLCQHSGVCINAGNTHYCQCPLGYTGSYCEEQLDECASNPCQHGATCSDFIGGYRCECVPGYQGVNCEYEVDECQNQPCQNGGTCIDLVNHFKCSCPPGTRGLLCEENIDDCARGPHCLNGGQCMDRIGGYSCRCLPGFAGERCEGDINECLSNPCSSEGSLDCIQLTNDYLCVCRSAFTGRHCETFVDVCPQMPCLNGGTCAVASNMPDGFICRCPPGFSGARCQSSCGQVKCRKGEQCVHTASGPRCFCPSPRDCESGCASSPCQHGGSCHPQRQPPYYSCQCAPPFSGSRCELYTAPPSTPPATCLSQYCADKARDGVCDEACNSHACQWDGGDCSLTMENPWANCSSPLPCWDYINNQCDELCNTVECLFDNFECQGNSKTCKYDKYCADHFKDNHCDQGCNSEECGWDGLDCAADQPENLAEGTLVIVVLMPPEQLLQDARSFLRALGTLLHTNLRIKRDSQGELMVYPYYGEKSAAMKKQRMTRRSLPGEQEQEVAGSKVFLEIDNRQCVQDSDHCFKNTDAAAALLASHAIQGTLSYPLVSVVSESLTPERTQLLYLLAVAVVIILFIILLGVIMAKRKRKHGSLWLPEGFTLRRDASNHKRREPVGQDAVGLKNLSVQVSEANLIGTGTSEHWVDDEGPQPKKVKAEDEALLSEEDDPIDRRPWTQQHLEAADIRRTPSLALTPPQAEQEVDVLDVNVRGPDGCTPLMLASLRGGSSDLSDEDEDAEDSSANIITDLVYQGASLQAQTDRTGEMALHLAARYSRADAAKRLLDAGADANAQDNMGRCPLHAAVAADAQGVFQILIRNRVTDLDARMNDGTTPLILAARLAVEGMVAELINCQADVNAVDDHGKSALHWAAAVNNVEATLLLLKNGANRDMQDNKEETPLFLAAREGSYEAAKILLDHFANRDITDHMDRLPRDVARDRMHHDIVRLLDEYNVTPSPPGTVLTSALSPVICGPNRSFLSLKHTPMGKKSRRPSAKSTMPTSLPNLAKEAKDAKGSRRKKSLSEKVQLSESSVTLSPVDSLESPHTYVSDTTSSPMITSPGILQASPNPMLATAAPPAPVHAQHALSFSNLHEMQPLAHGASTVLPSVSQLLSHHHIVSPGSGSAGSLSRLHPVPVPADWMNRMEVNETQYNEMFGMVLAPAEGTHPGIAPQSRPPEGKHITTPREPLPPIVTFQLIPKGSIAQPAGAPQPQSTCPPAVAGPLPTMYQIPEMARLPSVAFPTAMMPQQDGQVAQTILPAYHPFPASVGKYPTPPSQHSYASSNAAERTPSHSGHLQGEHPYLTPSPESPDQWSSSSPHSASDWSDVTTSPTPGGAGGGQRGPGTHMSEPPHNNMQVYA
T1 sequence (Q99466 24-2003): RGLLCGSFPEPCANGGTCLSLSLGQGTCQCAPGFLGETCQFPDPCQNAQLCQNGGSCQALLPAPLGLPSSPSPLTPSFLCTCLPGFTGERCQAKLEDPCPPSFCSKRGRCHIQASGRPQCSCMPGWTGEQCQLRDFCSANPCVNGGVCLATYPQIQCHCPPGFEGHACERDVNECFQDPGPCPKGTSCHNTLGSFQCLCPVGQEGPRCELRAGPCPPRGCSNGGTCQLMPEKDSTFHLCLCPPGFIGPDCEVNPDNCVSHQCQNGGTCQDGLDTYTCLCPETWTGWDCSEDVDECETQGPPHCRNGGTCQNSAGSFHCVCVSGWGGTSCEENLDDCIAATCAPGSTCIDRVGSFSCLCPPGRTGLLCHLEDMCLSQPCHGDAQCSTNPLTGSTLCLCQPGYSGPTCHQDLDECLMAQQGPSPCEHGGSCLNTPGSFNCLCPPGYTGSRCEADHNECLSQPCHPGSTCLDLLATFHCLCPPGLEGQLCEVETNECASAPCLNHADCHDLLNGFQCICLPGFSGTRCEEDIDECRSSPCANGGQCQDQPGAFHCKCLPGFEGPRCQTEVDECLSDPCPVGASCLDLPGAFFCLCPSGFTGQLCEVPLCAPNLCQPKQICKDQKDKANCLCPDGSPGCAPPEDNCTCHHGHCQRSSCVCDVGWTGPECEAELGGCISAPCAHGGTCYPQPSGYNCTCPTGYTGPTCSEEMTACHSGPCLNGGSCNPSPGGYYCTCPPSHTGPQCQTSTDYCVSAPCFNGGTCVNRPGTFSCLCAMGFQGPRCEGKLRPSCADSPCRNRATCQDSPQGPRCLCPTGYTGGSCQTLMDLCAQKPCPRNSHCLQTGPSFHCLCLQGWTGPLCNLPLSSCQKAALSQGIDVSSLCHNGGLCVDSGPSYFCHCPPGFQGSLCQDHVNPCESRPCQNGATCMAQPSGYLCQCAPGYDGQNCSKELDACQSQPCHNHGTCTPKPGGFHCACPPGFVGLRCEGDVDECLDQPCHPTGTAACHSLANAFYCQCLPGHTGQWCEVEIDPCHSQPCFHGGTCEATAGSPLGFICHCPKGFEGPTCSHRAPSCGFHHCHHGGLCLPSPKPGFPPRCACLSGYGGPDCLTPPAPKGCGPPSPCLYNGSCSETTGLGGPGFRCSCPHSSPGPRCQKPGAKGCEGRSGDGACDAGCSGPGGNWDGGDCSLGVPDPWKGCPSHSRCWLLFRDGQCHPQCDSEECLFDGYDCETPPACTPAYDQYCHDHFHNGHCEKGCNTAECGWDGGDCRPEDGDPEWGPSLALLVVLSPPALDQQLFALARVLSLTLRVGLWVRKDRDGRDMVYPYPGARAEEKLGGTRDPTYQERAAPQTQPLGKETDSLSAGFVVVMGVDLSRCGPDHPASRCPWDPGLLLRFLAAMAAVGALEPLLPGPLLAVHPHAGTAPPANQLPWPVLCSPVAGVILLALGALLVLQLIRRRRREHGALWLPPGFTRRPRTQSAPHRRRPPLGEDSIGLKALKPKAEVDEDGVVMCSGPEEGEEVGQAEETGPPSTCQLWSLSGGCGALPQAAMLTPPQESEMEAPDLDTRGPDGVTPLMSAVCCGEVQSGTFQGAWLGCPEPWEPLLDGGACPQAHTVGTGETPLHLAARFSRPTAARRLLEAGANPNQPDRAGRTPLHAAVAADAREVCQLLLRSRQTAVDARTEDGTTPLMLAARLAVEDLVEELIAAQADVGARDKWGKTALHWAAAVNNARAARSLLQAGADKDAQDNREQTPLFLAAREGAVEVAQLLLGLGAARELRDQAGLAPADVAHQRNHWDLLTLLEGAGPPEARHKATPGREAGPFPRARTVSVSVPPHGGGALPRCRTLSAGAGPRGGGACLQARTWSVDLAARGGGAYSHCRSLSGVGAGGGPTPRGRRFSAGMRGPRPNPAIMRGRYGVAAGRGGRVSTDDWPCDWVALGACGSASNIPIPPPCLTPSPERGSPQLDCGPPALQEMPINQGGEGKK

Regarding “59R1: human IgG2 antibody binding Notch2 and Notch3; heavy and light chain SEQ ID NO:16 and 18; ATCC PTA-9547”, in assay [1] (59R1 10 mg/kg twice per week and gemcitabine 40 mg/kg once per week), the “PN4 tumor growth, combination of 59R1 and gemcitabine” value is “inhibited”. For the same substance, in assay [1] (established tumors, 15 mg/kg once per week), the “PN4 tumor growth compared to control” value is listed as “significantly reduced”. In addition, the “binding to human Notch2 (FACS)” value with human Notch2 was “confirmed”. Moreover, the “cell cycle gene pathways, myc-activating genes and several stem cell gene sets” value in assay [2] is given as “down-regulated”. For the same substance, in the assay with human Notch4, the “binding to full-length human Notch4 (FACS)” value was “does not bind significantly”. Further, in the assay with M4 melanoma tumor cells, the “M4 melanoma tumor growth” value is reported as “inhibited”. For the same substance, in assay [3] (absence of estrogen treatment (T1 ne)), the “effect on down-regulation of angiopoietin-1 and angiopoietin-2 in the stroma of the T1 tumor” value was “abrogated”. Moreover, in assay [3] (breast cancer models), the “angiopoietin-1 (angpt1) expression in stroma (TaqMan)” value is recorded as “down-regulated in the stroma of a number of the breast cancer models” and the “angiopoietin-2 (angpt2) expression in stroma (TaqMan)” value is listed as “down-regulated in the stroma of a number of the breast cancer models”. Besides, in assay [3] (setting [5]), the “notch3 expression in stroma (TaqMan)” value was “down-regulated” and the “rgs5 expression in stroma (TaqMan)” value is given as “down-regulated”. In addition, the “angpt1 and angpt2 expression in the stroma of the T1 model” value in assay [3] (estrogen treatment used (T1 e)) is “down-regulated”. The “heyl expression in stroma (TaqMan)” value in assay [3] (xenograft models, relative to control) is reported as “downregulated in the stroma of each of the xenograft models except B34”. For the same substance, the “hDLL4-induced Notch2 reporter activity” value in assay [4] was “inhibit”.
